Reference: publication PMC7318222, “A Family of Water‐Immiscible, Dipolar Aprotic, Diamide Solvents from Succinic Acid” (Chemsuschem, 2020)
Entries after “also recorded” stand apart in the source; their conditions may differ.

How the values were obtained:
p53 = p53 CALUX assay; type: cell-based, human; set-up: key: –: no effect observed up to the highest test concentration; details: cell signaling pathway assay, 24 h exposure
Excerpt: (§1) Six of the CALUX assays (TCF through p53) detect activation of several cellular signaling pathways, which are indicative of general stress and acute toxicity, but also a range of more specific types of toxicity, including reproductive toxicity. […]
(§2) DCM ≥99.5%, chloroform ≥99.5%, DMSO ≥99.0% were purchased from VWR. […]
(§3) Polyarylethersulfone of 55,000 Da were obtained from INGE.BASF, Germany. The CALUX cell lines have been described previously.[1] They are based on human U2-OS cells (ATCC, HTB-96) stably transfected with an expression construct for the full-length human receptor under investigation, and a reporter construct consisting of multimerized responsive elements for the cognate receptor coupled to a minimal promoter element (TATA) and a luciferase gene. Cells were maintained as described previously,[2] using cell culture media and supplements from Fisher Scientific as described in the experimental procedures section. […]
(§4) In vitro reporter gene assays
(§5) The automated CALUX assays were carried out similarly as described earlier,[12] with some adaptations. In brief, the assay was performed in CO2 independent medium (Fisher Scientific, […]
(§6) supplement (Fisher Scientific, 11574466), 10 U/mL penicillin and 10 µg/mL streptomycin. A cell suspension in assay medium was made of 1 × 10^5cells/mL, and white 384-wells plates were seeded with 30 µl cell suspension/well. After 24 h, exposure medium was prepared. A dilution series in 0.5log unit increments of each test compound (in DMSO) was added to a 96-wells plate containing assay medium (2% v/v). Of this exposure mixture, 30 µl was added to the assay plates containing the CALUX cells, resulting in a final DMSO concentration of 1%. Additionally, DMSO blanks and a full dose response curve of the relevant reference compound were included on each plate. All samples were tested in triplicate. The preparation of the compound dilution series as well as the exposure of the cells were performed on a Hamilton StarLET liquid handling robot coupled to a Cytomat incubator.
(§7) Directly after exposure, plates were sealed with non-breathing plate seals (Plate sealer, easy seal transparent; Greiner-Bio-One, 676001). After 24 h the exposure medium was removed using an EL406 washer-dispenser (BioTek) and 10 µl/well triton lysisbuffer was added by the EL406.
(§8) Subsequently, the luciferase signal was measured in a luminometer (InfinitePro coupled to a Connect Stacker, both TECAN). In order to be able to detect receptor antagonism, several assays were also performed in antagonistic mode. The assay procedure was as described above, with the only exception that the EC50 concentration of the reference agonist was present during the exposure.
(§9) The luminometer data was analysed as follows; the average of the triplicate wells was determined, and the average blank (DMSO) value was subtracted. For receptor-based assays the maximum response elicited by the reference compound was set to 100% (full receptor- or pathway activation), and the other values were scaled accordingly. GraphPad Prism was used to fit a sigmoidal curve through the data (four parameters, variable slope). […] For antagonist- and cytotoxicity experiments, PC20 values were determined instead, which was defined as the concentration where the test compound causes a 20% decrease in the basal signal, which was […]
(§10) curve, the signal induction above background (DMSO) was determined, and the concentration where the compound elicited a 1.5-fold increase above background was used as LEC.

Miscibility with water = type: physicochemical; details: this work
GR = biological target: T1, GR (Homo sapiens, UniProt P04150); test: GR-anti CALUX reporter gene assay (antagonistic mode); type: cell-based; set-up: key: –: no effect observed up to the highest test concentration; details: PC20, 24 h exposure
T1 construct: expression construct for the full-length human receptor under investigation; expressed in transfected cells; host or cells: human U2-OS cells (ATCC HTB-96), stably transfected
T1 sequence (P04150 1-777): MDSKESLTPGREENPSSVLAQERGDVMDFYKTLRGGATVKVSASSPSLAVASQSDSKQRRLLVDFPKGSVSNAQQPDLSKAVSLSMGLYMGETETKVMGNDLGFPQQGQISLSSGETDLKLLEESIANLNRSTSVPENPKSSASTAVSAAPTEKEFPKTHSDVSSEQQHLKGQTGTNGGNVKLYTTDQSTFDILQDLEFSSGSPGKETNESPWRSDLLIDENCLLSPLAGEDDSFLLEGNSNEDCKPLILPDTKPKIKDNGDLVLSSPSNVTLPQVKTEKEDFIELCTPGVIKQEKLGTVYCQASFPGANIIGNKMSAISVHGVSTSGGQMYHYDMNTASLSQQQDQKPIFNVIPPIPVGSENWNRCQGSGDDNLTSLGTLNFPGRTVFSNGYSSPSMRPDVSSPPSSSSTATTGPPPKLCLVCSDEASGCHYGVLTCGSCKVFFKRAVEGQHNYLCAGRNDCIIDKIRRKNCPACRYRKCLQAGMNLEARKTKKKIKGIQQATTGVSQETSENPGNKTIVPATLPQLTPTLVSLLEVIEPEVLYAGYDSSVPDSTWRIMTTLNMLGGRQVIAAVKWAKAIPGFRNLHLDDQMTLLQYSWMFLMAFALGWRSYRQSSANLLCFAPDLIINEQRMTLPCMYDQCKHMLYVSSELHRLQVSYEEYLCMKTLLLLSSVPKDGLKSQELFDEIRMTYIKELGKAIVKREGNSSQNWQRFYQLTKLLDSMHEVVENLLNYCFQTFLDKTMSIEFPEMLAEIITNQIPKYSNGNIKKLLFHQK
Excerpt: nitroaniline ≥98.0% was purchased from Alfa Aeser. Cyrene was supplied by Circa group. N-butylpyrrolidinone was supplied by Eastman chemicals. […]
as §3, §4, §5
as §6, with “with” for “supplement (Fisher Scientific, 11574466), 10 U/mL penicillin and 10 µg/mL streptomycin. A cell suspension in assay medium was made of 1 × 10^5cells/mL, and white 384-wells plates were seeded with”
Directly after exposure, plates were sealed with non-breathing plate seals (Plate sealer, easy seal […]
After 24 h the exposure medium was removed using an EL406 washer-dispenser (BioTek) and 10 µl/well triton lysisbuffer was added by the EL406.
as §8
The luminometer data was analysed as follows; the average of the triplicate wells was determined, […]

Nrf2 = Nrf2 CALUX assay (oxidative stress); type: cell-based, human; set-up: key: –: no effect observed up to the highest test concentration; details: cell signaling pathway assay, 24 h exposure
Excerpt: as §1, §2, §3, §4, §5, §6, §7, §8, §9, §10

| SMILES | LEC p53 (p53) | Water misc. (Miscibility with water) | LEC GR‐anti (GR) | LEC Nrf2 (Nrf2) |
| --- | --- | --- | --- | --- |
| CCCCN1CCCC1=O [NBP, N‐Butylpyrrolidinone, reference compound] | – | miscible; also recorded: yes^[a] | – | – |
| CCCCN(CCCC)C(=O)CCC(=O)N(CCCC)CCCC [TBSA, N,N,N′,N′‐tetrabutylsuccindiamide] | – | no^[a] | – | – |
| CN1CCCC1=O [NMP, N‐methyl‐2‐pyrrolidone, reference compound] | – | yes^[a] |  | – |
| CCCCN(CC)C(=O)CCC(=O)N(CC)CCCC [EBSA, N,N′‐diethyl‐N,N′‐dibutylsuccindiamide] | – | no^[a] | – | – |
| CCCCN(C)C(=O)CCC(=O)N(C)CCCC [MBSA, N,N′‐dimethyl‐N,N′‐dibutylsuccindiamide] | – | no^[a] | – | −2.9 Log M |
